Entries after “also recorded” stand apart in the source; their conditions may differ. Square brackets hold non-standard residues; d marks the D form. Peptide text beside a SMILES is read from it. pY = N[C@@H](Cc1ccc(OP(=O)(O)O)cc1)C(=O)O
Columns and labels:
[1] = molecular target: STAT3 (Homo sapiens, UniProt P40763); experiment: Competitive fluorescence polarization (FP) assay, STAT3 SH2 domain; format: binding; settings: tracer 5-carboxyfluorescein-GpYLPQTV-NH2, Ki derived from IC50
Method: (§1) Fluorescence polarization assays
(§2) Competitive fluorescence polarization assays, which measure the abilities of test compounds (dissolved in DMSO) to displace a fluorescent-labeled peptide from the SH2 domain of a STAT protein, were carried out essentially as described. Proteins were used at the following final concentrations: 23 nM or 28 nM for STAT4; between 56 nM and 91 nM for STAT1; 107 nM or 110 nM for STAT3; between 131 nM and 177 nM for STAT5a; between 62 nM and 85 nM for STAT5b; and 101 nM or 106 nM for STAT6. These concentrations represent the approximate […]
(§3) dissociation constant for peptide binding of the respective protein batches used in the assays.
(§4) The following peptides were used: 5-carboxyfluorescein-GpYLPQNID-OH for STAT4; 5-carboxyfluorescein-GpYDKPHVL for STAT1; 5-carboxyfluorescein-GpYLPQTV-NH2 for STAT3; 5-carboxyfluorescein-GpYLVLDKW for STAT5a/b, and 5-carboxyfluorescein- […]
(§5) Gp[…]-OH for STAT6. All peptides were used at a final concentration of 10 nM. The buffer consisted of 10 mM Tris (pH 8.0), 50 mM NaCl, 1 mM EDTA, 1 mM DTT, 0 .1 % Nonidet P-40 substitute, and 2 % DMSO. After incubation of protein and test compound for 1 h at room temperature, the fluorescent -labeled peptide was added. Samples were transferred to 384 - well microtiter plates and fluorescence polarization was read after an additional 60 min of incubation time. Measurements were performed in triplicate. Percent binding was calculated based on a logarithmic curve fit using OriginPro 8G software. IC 50 values were converted to Ki-values via the published equation[3] using the corresponding Excel spread sheet […]
(§6) https://websites.umich.edu/~shaomengwanglab/software/calc_ki/index.html .
(§7) Error bars represent standard deviations. Ligand efficiencies (LE) were calculated by the formula LE = -1,37 x log Ki / number of non-hydrogen atoms.[4] […]

[2] = molecular target: T1, STAT4 (Homo sapiens, UniProt Q14765); experiment: Competitive fluorescence polarization (FP) assay, STAT4 SH2 domain; format: binding; settings: FP assay; for Ki: tracer 5-carboxyfluorescein-GpYLPQNID-OH, Ki derived from IC50, read-out: STAT4 K i; for Ki / IC50: mean ± SD, n = 3
T1 sequence (Q14765 1-748): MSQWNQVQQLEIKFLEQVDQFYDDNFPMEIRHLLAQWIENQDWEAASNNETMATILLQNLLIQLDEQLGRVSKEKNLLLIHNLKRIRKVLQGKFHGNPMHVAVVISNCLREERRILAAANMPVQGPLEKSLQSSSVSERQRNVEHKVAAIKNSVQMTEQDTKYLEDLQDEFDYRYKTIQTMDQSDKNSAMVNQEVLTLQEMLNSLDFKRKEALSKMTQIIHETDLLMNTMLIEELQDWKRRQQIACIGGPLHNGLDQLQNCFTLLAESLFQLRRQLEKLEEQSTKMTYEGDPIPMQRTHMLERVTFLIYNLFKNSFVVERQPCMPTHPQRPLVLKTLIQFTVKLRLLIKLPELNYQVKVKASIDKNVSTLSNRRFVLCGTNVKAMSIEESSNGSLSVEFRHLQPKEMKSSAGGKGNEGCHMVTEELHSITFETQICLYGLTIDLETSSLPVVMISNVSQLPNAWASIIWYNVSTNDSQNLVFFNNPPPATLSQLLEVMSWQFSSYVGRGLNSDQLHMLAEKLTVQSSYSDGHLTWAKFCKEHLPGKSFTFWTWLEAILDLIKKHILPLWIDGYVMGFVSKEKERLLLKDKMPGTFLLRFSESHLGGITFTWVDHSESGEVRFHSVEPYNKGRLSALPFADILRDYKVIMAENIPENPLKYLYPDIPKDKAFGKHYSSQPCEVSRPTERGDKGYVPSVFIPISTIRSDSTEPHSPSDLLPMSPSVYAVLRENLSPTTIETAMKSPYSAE
Method: as §1, §2, §3, §4, §5, §6, §7

[3] = molecular target: T2, STAT1 (Homo sapiens, UniProt P42224); experiment: Competitive fluorescence polarization (FP) assay, STAT1 SH2 domain; format: binding; settings: tracer 5-carboxyfluorescein-GpYDKPHVL, Ki derived from IC50
T2 sequence (P42224 1-750): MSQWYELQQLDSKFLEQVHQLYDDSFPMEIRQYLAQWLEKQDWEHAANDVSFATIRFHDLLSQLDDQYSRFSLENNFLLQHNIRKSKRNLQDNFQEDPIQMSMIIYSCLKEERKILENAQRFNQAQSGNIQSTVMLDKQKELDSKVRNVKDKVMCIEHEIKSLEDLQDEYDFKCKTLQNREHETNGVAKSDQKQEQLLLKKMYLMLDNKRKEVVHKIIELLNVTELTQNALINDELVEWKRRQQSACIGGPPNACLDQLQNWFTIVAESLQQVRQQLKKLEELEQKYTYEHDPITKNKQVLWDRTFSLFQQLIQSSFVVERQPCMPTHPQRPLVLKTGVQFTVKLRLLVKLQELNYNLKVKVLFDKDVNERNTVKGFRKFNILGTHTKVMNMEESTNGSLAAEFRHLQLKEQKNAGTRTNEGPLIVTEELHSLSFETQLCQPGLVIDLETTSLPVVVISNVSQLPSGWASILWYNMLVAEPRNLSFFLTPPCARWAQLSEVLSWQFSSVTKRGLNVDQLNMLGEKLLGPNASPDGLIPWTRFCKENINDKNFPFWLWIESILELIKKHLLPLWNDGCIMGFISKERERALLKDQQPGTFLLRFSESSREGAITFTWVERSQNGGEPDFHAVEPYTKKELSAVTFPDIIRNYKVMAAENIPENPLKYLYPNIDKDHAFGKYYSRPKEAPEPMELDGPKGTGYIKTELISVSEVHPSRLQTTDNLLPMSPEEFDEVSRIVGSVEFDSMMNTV
Method: as §1, §2, §3, §4, §5, §6, §7

[4] = molecular target: T1, STAT4; experiment: IL-12-induced STAT4 Tyr693 phosphorylation in NK-92 cells (Western blot); format: cell-based; design: utilizing cellular lysates from the STAT4‐expressing natural killer cell line NK‐92; endogenous in cells; host or cells: NK-92 (DSMZ)
Method: NK-92 cells (DSMZ) were cultured in α-MEM containing 12.5% fetal bovine serum (FBS), 12.5% horse serum, 2 mM L-glutamine, penicillin/streptomycin and 50 U/ml IL -2. […]
The components of cell lysates from treated cells, or heat-treated lysates from CETSA, were separated by SDS-PAGE (10%), transferred to nitrocellulose membrane (Bio-Rad) and detected using monoclonal rabbit primary antibodies (Cell Signaling), α-rabbit-HRP secondary antibody (Dako) and Western Lightning Plus chemiluminescence reagent (Perkin Elmer).
Bands were visualized using an ImageQuant system (GE Healthcare) and quantitated using ImageJ software (NIH). […]
The sitting drop was composed of 0.1 µl protein solution and 0.1 µl reservoir solution. Plates were stored at 19°C in a protein […]
In the first set of experiments, w e tried to crystallize STAT4 as a SUMO -STAT4 fusion protein […]
was cleaved off as described above.
Screening for crystallization conditions for tag-free STAT4 was performed both in the absence or presence of 1 equivalent of 6m or 6h. Since the chosen protein concentration of 3.6 mg/ml appeared to be too low, screening was repeated with a higher concentration of 6.4 mg/ml STAT4 for all conditions (corresponding to 100 µM 6m). Both the SUMO-STAT4 and the tag-free STAT4 preferentially precipitated under conditions containing polyethylene glycol. In one set of experiments, we also screened for conditions in the presence of the high-affinity peptide GY(PO3H2)LPQNID adapted from the IL-12 receptor. However, none of the conditions resulted in the growth of STAT4 crystals (Table S4).

Chain of STAT3 (P40763 whole entry, species assumed, the tested form may be a part): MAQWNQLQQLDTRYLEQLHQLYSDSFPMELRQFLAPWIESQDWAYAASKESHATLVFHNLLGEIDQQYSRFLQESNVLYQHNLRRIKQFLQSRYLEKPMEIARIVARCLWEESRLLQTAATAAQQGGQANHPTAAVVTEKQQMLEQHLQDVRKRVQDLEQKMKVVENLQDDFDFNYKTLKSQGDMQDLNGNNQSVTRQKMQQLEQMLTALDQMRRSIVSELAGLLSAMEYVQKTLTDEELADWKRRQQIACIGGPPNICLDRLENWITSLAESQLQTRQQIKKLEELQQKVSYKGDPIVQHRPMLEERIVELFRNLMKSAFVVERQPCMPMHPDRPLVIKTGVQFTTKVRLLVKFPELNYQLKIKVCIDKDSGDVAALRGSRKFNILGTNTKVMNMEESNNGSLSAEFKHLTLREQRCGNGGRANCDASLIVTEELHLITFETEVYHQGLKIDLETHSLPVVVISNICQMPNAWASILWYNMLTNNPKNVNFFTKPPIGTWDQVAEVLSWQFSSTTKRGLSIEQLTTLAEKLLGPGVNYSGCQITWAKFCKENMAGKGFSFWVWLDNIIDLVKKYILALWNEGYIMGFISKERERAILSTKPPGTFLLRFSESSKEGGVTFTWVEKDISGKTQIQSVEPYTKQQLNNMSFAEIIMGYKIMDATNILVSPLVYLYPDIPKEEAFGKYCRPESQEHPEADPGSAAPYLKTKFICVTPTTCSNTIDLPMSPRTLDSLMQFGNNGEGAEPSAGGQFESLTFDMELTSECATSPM

Compound | Ki [2] | IC50 [2] | also measured
CC[C@H](C)[C@H](NC(=O)[C@H](CC(N)=O)NC(=O)[C@H](CCC(N)=O)NC(=O)[C@@H]1CCCN1C(=O)[C@H](CC(C)C)NC(=O)[C@H](Cc1ccc(OP(=O)(O)O)cc1)NC(=O)CNC(C)=O)C(=O)N[C@@H](CC(=O)O)C(=O)O [Ac‐GpYLPQNID, reference compound] (Ac-G[pY]LPQNID-OH) | 0.22 ± 0.02 µM |  | Ki [1]: 0.24 ± 0.04 µM; Ki [3]: 0.36 ± 0.08 µM
Oc1ccc(-c2ccc3ccccc3c2)cc1F [Compound 4m] |  |  | STAT4 inhibition at 200 µM ([2]; 200 µM): lack of activity; also recorded: no inhibition at 200 µM
COC(=O)c1ccccc1-c1ccc(OP(=O)(O)O)cc1 [Compound 6a] | 9.1 ± 0.8 µM | 18 ± 2 µM | 
O=C(O)c1ccccc1-c1ccc(OP(=O)(O)O)cc1 [Compound 6b] | 7.8 ± 0.5 µM | 17 ± 1 µM | 
N#Cc1ccccc1-c1ccc(OP(=O)(O)O)cc1 [Compound 6c] | 2.7 ± 0.3 µM | 5.2 ± 0.6 µM | 
CC(=O)NCc1ccccc1-c1ccc(OP(=O)(O)O)cc1 [Compound 6d] | 6.2 ± 0.4 µM | 12 ± 1 µM | 
COc1cc(OC)cc(-c2ccc(OP(=O)(O)O)cc2)c1 [Compound 6e] | 1.9 ± 0.1 µM | 3.9 ± 0.2 µM | 
O=P(O)(O)Oc1ccc(-c2cccc3ccccc23)cc1 [Compound 6f] | 0.84 ± 0.08 µM | 1.8 ± 0.2 µM | 
O=P(O)(O)Oc1ccc(-c2ccccc2)c(F)c1 [Compound 6i] | 3.8 ± 0.1 µM | 8.1 ± 0.1 µM | 
O=P(O)(O)Oc1c(F)cc(-c2ccccc2)cc1F [Compound 6j] | 2 ± 0.1 µM | 4.3 ± 0.3 µM | 
O=P(O)(O)Oc1ccc(-c2ccccc2)cc1Cl [Compound 6k] | 3.3 ± 1 µM | 7 ± 2 µM | 
COc1cc(-c2ccccc2)ccc1OP(=O)(O)O [Compound 6l] | 22 ± 2 µM | 47 ± 5 µM | 
O=P(O)(O)Cc1ccc(-c2ccc3ccccc3c2)cc1F [Compound 7] |  |  | inhibition at 100 µM ([2]; 100 µM, the highest concentration tested): 33 ± 4%
O=P(O)(O)C(F)(F)c1ccc(-c2ccoc2)cc1F [Compound 8b] | 39 ± 1 µM | 83 ± 2 µM | 
Cn1cc(-c2ccc(C(F)(F)P(=O)(O)O)c(F)c2)cn1 [Compound 8c] | 8 ± 0.7 µM | 15 ± 1 µM | 
O=P(O)(O)C(F)(F)c1ccc(-c2cccs2)cc1F [Compound 8d] | 3.6 ± 0.2 µM | 7.7 ± 0.4 µM | 
O=P(O)(O)C(F)(F)c1ccc(-c2ccsc2)cc1F [Compound 8e] | 2.8 ± 0.3 µM | 6 ± 0.6 µM | 
COC(=O)c1cc(-c2ccc(C(F)(F)P(=O)(O)O)c(F)c2)cs1 [Compound 8f] | 4.4 ± 0.1 µM | 9.4 ± 0.2 µM | 
NC(=O)c1cc(-c2ccc(C(F)(F)P(=O)(O)O)c(F)c2)cs1 [Compound 8g] | 11 ± 2 µM | 24 ± 4 µM | 
CC(=O)c1cc(-c2ccc(C(F)(F)P(=O)(O)O)c(F)c2)cs1 [Compound 8h] | 7.1 ± 0.6 µM | 15 ± 1 µM | 
O=P(O)(O)C(F)(F)c1ccc(-c2csc(Cl)c2)cc1F [Compound 8i] | 5.5 ± 0.7 µM | 12 ± 2 µM | 
O=P(O)(O)C(F)(F)c1ccc(-c2ccsc2Cl)cc1F [Compound 8j] | 7.3 ± 0.6 µM | 15 ± 1 µM | 
Cc1sccc1-c1ccc(C(F)(F)P(=O)(O)O)c(F)c1 [Compound 8l] | 8.7 ± 0.9 µM | 18 ± 2 µM | 
Cc1cscc1-c1ccc(C(F)(F)P(=O)(O)O)c(F)c1 [Compound 8m] | 8.9 ± 0.7 µM | 19 ± 1 µM | 
CC(C)(C)C(=O)OCOP(=O)(Cc1ccc(-c2ccc3ccccc3c2)cc1F)OCOC(=O)C(C)(C)C [Compound 10] |  |  | inhibition of IL‐12‐induced STAT4 Tyr693 phosphorylation ([4]; 2 h, presence of 25% serum): inactive; also recorded: does not; inhibition of IL‐12‐induced STAT4 Tyr693 phosphorylation ([4]; absence of serum): still inactive

— paper PMC12087874, “Biaryl Phosphates and Phosphonates as Selective Inhibitors of the Transcription Factor STAT4” (Angewandte Chemie (International Ed. in English), 2025)
